From paper PMC7305796 (Antiviral research, 2019)

What was measured:
VEEV TC-83 [1] = assay: microbe, parasite or virus in culture; type: cell-based; details: Venezuelan equine encephalitis virus, Vero 76, 48 h, read-out: VEEV EC50
VEEV TC-83 [2] = type: cell-based, Venezuelan equine encephalitis virus
[3] = tested on: VEEV Trinidad Donkey (TrD); set-up: species or system BALB/c mice; details: mouse, in vivo
[4] = mouse, microsomes
[5] = mouse
[6] = mouse; remark: listed apart in the source
VEEV TC-83 [7] = details: mouse, in vivo; cited from earlier work

CN1CCN(C)/C(=N/c2ccc([N+](=O)[O-])cc2C(=O)Nc2ccccc2)C1 [ML336, (E)-2-((1,4-dimethylpiperazin-2-ylidene)amino)-5-nitro-N-phenylbenzamide]
EC50 (VEEV TC-83 [1]): 32 ± 5 nM | VEEV log titer reduction (VEEV TC-83 [2]): 7.0 ± 0.4 log | protection of mice (survival) [3]: 100% | Microsomal stability, % parent after 1h [4]: 42.9% | Plasma stability, % parent after 3h [5]: 65.4% | plasma protein binding, % bound at 1 μM [6]: 85.0 / 77.0% | plasma protein binding, % bound at 10 μM [6]: 85.0 / 77.0% | survival rate (VEEV TC-83 [7]): 71%
